Test results reported in US20190152962A1, “CYCLOPROPYL DERIVATIVES AS ROR-GAMMA MODULATORS” (CADILA HEALTHCARE LIMITED, priority 2016, published 2019).
pIC50: −log10 of the molar value.

Key:
[1] = test system: secreted IL-17 in peripheral blood mononuclear cells (PBMCs); assay: Human IL-17 inhibition assay; assay type: cell-based; conditions: PBMC, anti-CD3/anti-CD28, 72 h, read-out: IL17 IC50
Protocol: Peripheral blood mononuclear cells (PBMCs) were isolated from healthy volunteers and subjected to T cell polarization assay. Two million PBMCs were placed on anti-CD3 (Biolegend, US) coated 96-well plates and 1 μg/mL of anti-CD28 (Biolegend, US) was added along with RORγt inhibitors or the vehicle control and incubated at 37° C. and 5% CO2 for 72 h. At the end of incubation time, the supernatant was collected and analyzed for secreted IL-17 using sandwich enzyme immunoassay (Mabtech AB, Sweden). The results were analyzed using Graphpad Prism and the half-maximal inhibitory concentrations (IC50) of the test compounds were derived (Table 4).

full length human RORγt = target: T1, full length human RORγt (Homo sapiens, UniProt P51449); assay: 5×RORE based luciferase assay; assay type: cell-based; conditions: COS-7 cells transfected with 5×RORE-Luc and hRORγt, 18-20 h treatment
T1 construct: full length human RORγt together in COS-7 cells; expressed in transfected cells; host or cells: COS-7
T1 sequence (P51449 1-497 isoform P51449-2): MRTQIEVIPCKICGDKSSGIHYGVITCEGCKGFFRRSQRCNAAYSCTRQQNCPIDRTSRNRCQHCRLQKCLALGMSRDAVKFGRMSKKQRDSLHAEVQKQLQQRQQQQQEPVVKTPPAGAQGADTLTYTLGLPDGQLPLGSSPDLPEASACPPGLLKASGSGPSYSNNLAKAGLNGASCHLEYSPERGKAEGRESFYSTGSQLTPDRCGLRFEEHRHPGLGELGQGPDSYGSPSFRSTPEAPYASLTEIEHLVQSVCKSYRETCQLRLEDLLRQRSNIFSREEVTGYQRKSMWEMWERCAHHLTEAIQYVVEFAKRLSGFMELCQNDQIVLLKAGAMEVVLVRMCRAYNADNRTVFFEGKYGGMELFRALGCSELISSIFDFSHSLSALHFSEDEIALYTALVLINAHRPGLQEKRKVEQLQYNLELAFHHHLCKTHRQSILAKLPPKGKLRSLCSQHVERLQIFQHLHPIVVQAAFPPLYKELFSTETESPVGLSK
Protocol: Human RORγt (hRORγt) inhibitors were screened in RORE (RORγt Response Element) based Luciferase assay by transient transfection of 5×RORE (5 tandem repeats of RORγt Response Element) and full length human RORγt together in COS-7 cells. COS-7 cells were maintained as monolayer in complete DMEM (High Glucose) medium in presence of 2 mM Glutamin and 1× Sodium Pyruvate. Day before transfection, 15000 cells were seeded in 96 well cell culture plate in 100 μl antibiotic free medium and incubated at 37° C. in 5% CO2 containing humidified chamber O/N. Prior to transfection, cells were fed with fresh complete growth medium and incubated until the addition of transfection complex. Transfection complex for the required numbers of wells were prepared from pGL2-promoter-5×RORE-Luc plasmid, pcDNA3.1 (+)-hRORγt expression plasmid, pβ-GAL plasmid (transfection control), and Lipofectamine 3000 (Invitrogen). 50 μl of transfection complex were added in 100 μl of complete medium to respective wells, mixed gently and plate was incubated for 5-6 h at 37° C. in 5% CO2 containing humidified chamber. After 5 h of transfection, content of the wells were aspirated and cells were treated with increasing concentration of RORγt inverse agonist in medium devoid of serum with a final DMSO concentration of 0.2% for 18-20 h at 37° C. in 5% CO2 containing humidified chamber. Next day, cells were lysed and the lysates were assayed for luciferase and β-GAL activity using Promega's luciferase assay system and an in-house made β-GAL assay buffer respectively. Luciferase signals were normalized with β-GAL and % activity was determined with respect to that of 10 nM control ligand.
IC50 of selected compounds were then determined by nonlinear regression analysis of % activity, plotted against compound concentration (Table 4).

Row | pIC50 (full length human RORγt) | Structure (SMILES) | pIC50 [1]
1 | 7.96 | CCS(=O)(=O)c1ccc(CC(=O)Nc2cc(Cl)c(C3(c4noc(-c5c(F)cc(F)cc5F)n4)CC3)c(Cl)c2)cc1 [Example 8, N-(3,5-dichloro-4-(1-(5-(2,4,6-trifluorophenyl)-1,2,4-oxadiazol-3-yl)cyclopropyl)phenyl)-2-(4-(ethylsulfonyl)phenyl)acetamide] | 8.57
2 | 8.05 | CCS(=O)(=O)c1ccc(CC(=O)Nc2cc(Cl)c(C3(c4noc(-c5ccc(F)cc5Cl)n4)CC3)c(Cl)c2)cc1 [Example 9, N-(3,5-dichloro-4-(1-(5-(2-chloro-4-fluorophenyl)-1,2,4-oxadiazol-3-yl)cyclopropyl)phenyl)-2-(4-(ethylsulfonyl)phenyl)acetamide] | 8.04
3 | 8.17 | CCS(=O)(=O)c1ccc(CC(=O)Nc2cc(Cl)c(C3(c4noc(-c5ccc(F)c(Cl)c5)n4)CC3)c(Cl)c2)cc1 [Example 10, N-(3,5-dichloro-4-(1-(5-(3-chloro-4-fluorophenyl)-1,2,4-oxadiazol-3-yl)cyclopropyl)phenyl)-2-(4-(ethylsulfonyl)phenyl)acetamide] | 8.03
4 | 7.80 | CCS(=O)(=O)c1ccc(CC(=O)Nc2cc(Cl)c(C3(c4noc(-c5ccc(Cl)c(Cl)c5)n4)CC3)c(Cl)c2)cc1 [Example 11, N-(3,5-dichloro-4-(1-(5-(3,4-dichlorophenyl)-1,2,4-oxadiazol-3-yl)cyclopropyl)phenyl)-2-(4-(ethylsulfonyl)phenyl)acetamide] | 7.83

Further lines, the molecule ahead of its results:

Row | Structure (SMILES) | pIC50 (full length human RORγt) | pIC50 [1]
5 | CCS(=O)(=O)c1ccc(CC(=O)Nc2cc(Cl)c(C3(c4noc(-c5ccc(F)cc5)n4)CC3)c(Cl)c2)cc1 [Example 1, N-(3,5-dichloro-4-(1-(5-(4-fluorophenyl)-1,2,4-oxadiazol-3-yl)cyclopropyl)phenyl)-2-(4-(ethylsulfonyl)phenyl)acetamide] |  | 8.18
6 | CCS(=O)(=O)c1ccc(CC(=O)Nc2cc(Cl)c(C3(c4noc(-c5ccccc5)n4)CC3)c(Cl)c2)cc1 [Example 2, N-(3,5-dichloro-4-(1-(5-phenyl-1,2,4-oxadiazol-3-yl)cyclopropyl)phenyl)-2-(4-(ethylsulfonyl)phenyl)acetamide] | 8.15 | 7.60
7 | CCS(=O)(=O)c1ccc(CC(=O)Nc2cc(Cl)c(C3(c4noc(-c5ccc(C(F)(F)F)cc5)n4)CC3)c(Cl)c2)cc1 [Example 3, N-(3,5-dichloro-4-(1-(5-(4-(trifluoromethyl)phenyl)-1,2,4-oxadiazol-3-yl)cyclopropyl)phenyl)-2-(4-(ethylsulfonyl)phenyl)acetamide] | 8.07 | 7.42
8 | CCS(=O)(=O)c1ccc(CC(=O)Nc2cc(Cl)c(C3(c4noc(-c5ccc(C)cc5)n4)CC3)c(Cl)c2)cc1 [Example 4, N-(3,5-dichloro-4-(1-(5-(p-tolyl)-1,2,4-oxadiazol-3-yl)cyclopropyl)phenyl)-2-(4-(ethylsulfonyl)phenyl)acetamide] | 8.84 | 7.82
9 | CCS(=O)(=O)c1ccc(CC(=O)Nc2cc(Cl)c(C3(c4noc(-c5ccc(F)c(F)c5)n4)CC3)c(Cl)c2)cc1 [Example 5, N-(3,5-dichloro-4-(1-(5-(3,4-difluorophenyl)-1,2,4-oxadiazol-3-yl)cyclopropyl)phenyl)-2-(4-(ethylsulfonyl)phenyl)acetamide] | 8.25 | 7.77
10 | CCS(=O)(=O)c1ccc(CC(=O)Nc2cc(Cl)c(C3(c4noc(-c5cccc(F)c5)n4)CC3)c(Cl)c2)cc1 [Example 6, N-(3,5-dichloro-4-(1-(5-(3-fluorophenyl)-1,2,4-oxadiazol-3-yl)cyclopropyl)phenyl)-2-(4-(ethylsulfonyl)phenyl)acetamide] | 8.47 | 7.46
11 | CCS(=O)(=O)c1ccc(CC(=O)Nc2cc(Cl)c(C3(c4noc(-c5ccc(F)cc5F)n4)CC3)c(Cl)c2)cc1 [Example 7, N-(3,5-dichloro-4-(1-(5-(2,4-difluorophenyl)-1,2,4-oxadiazol-3-yl)cyclopropyl)phenyl)-2-(4-(ethylsulfonyl)phenyl)acetamide] | 8.06 | 7.98
